Entries after “also recorded” stand apart in the source; their conditions may differ.
Tests used:
[1] = system: TNF-α expression in RAW 264.7 cells; experiment: Cytokine expression in LPS-activated mouse macrophage cell line, TNF-α ELISA; assay type: cell-based; conditions: 1 μg/ml LPS, 24 hours
[2] = Oxygen Radical Absorbance Capacity (ORAC) assay; conditions: synthetic peptides; for ORAC value (scavenging activity): per g of peptide
Method: This assay measures the scavenging capacity of antioxidant nutrients against the peroxyl radical [Diehl-Jones W L and Askin D F. American Association of Critical Care Nurses (AACN) Clin Issues 15: 83 (2004)], which is one of the most common reactive oxygen species (ROS) in the human body. […] To identify the peptides in fraction #23, the sample was injected into an LC-MS/MS system.

[3] = system: MCP-1 secretion from human PBMCs; experiment: MCP-1 secretion from peripheral blood mononuclear cells after peptide exposure (sandwich ELISA); assay type: cell-based; conditions: 24 h exposure, 20 and 100 μg/ml
Method: FIG. 13 illustrates stimulation of MCP-1 and Gro-a sectretion from human peripheral blood mononuclear cells (PBMCs) after 24 h exposure to peptides 1-8 (SEQ ID NOs. 1, 29, 2, 8, 9, 19, and 22, respectively) from fraction #23. The experiment was carried out in 4 biological replicates (4 different donors), with 2 technical repeats in each biological experiment. The peptide fragments were tested at 2 concentrations, 20 and 100 μg/ml and MCP-1 and Gro-a were detected by sandwich ELISA kits (BioSource International and eBiosciences, respectively). A positive control peptide (1002) was used in the experiment.
Venous blood from healthy volunteers is collected in Vacutainer® collection tubes containing sodium heparin as an anticoagulant (BD Biosciences). […] The buffy coat is collected and washed twice in RPMI 1640 complete medium, and the number of PBMCs can be determined by trypan blue exclusion. […]
Following 24 hrs of peptide exposure, the tissue culture supernatants are centrifuged at 16,000G (13,000 rpm) at 4° C. for 5 minutes in an IEC MicroMax centrifuge to obtain cell-free samples. […] Cytokines/chemokines are detected by sandwich ELISA kits (BioSource International or eBiosciences) and multiplex kit (Luminex). […] The concentration of the cytokines/chemokines in the culture medium can be quantified by establishing a standard curve with serial dilutions of the recombinant human cytokines/chemokines. […]

[4] = system: IL-6 expression in RAW 264.7 cells; experiment: Cytokine expression in LPS-activated mouse macrophage cell line, IL-6 ELISA; assay type: cell-based; conditions: 100 μg/ml peptide, 1 μg/ml LPS, 24 hours
Method: FIG. 11 illustrates the effects of peptides of fraction #23 and tryptophan on TNF-α and IL-6 expression in RAW 246.7 cells. All values expressed in pg/ml +/− SD. Cells grown in 24-well culture tissue-culture grade plates (Corning) and incubated with 100 μg/ml of one of eight milk peptides 1-8 (SEQ ID NOs. 28, 1, 29, 2, 8, 9, 19, and 22, respectively) and 1 μg/ml LPS.
A mouse macrophage cell line (RAW 264.7) was activated with 1 μg/m1 lipopolysaccharide (LPS), a gram negative bacterial cell wall product which induces the expression of inflammatory cytokines (Interleukin-6 [IL-6] and Tumor Necrosis Factor alpha [TNF-α]) via activation of toll-like receptors [Wu, T. T. et al. Toxicol Let. 195-202 (2009). After incubation with LPS for 24 hours in the presence of the peptides from example 7, cell supernatant was collected and mouse IL-6 and TNF-α titres were determined by a standard micro-plate enzyme-linked immunosorbent assay (ELISA) technique (e-Biosciences).

[5] = system: IL-8 secretion in Caco-2 cells; experiment: LPS induced IL-8 secretion in Caco-2 cell culture model; assay type: cell-based; conditions: 50, 100, 200 μg/ml, 4, 8, 20, 24 h
From the text: Culture medium for non-peptide treated cells was used as control. *P<0.05 indicates a significant difference between the 23-8 treated group and the control group (one-way ANOVA, n=4).

Molecule | TNF-α expression compared to the control (cell culture medium plus LPS) ([1]; 100 μg/ml peptide) | radical scavenging activity in ORAC assay (in words) [2] | ORAC value (scavenging activity) [2] | other results
VPVQA (listed as Homo sapiens) [SEQ ID NO. 1, fragment from human beta casein in fraction #23] | significantly inhibited | No scavenging activities |  | 
HNPI (listed as Homo sapiens) [SEQ ID NO. 28, fragment from human beta casein in fraction #23] |  |  | 114 ±14 uM Trolox/g | levels of MCP-1 from PBMCs [3]: robust response; also recorded: significant activity
ISELGW (listed as Homo sapiens) [SEQ ID NO. 22, tryptophan-containing peptide of fraction #23, not matched to a human milk protein] | significantly inhibited | most radical scavenging properties |  | IL-6 expression [4]: significantly reduced; levels of MCP-1 from PBMCs [3]: robust response; also recorded: significantly increased; LPS induced interleukin-8 (IL-8) secretion [5]: decrease
PLAQPA (listed as Homo sapiens) [SEQ ID NO. 29, fragment from human beta casein in fraction #23] | significantly inhibited | No scavenging activities |  | 
N[C@@H](Cc1c[nH]c2ccccc12)C(=O)O [tryptophan, L-tryptophan, reference compound] |  |  |  | TNF-α expression compared to the control (cell culture medium plus LPS) ([1]; 100 μM tryptophan): greatest inhibition
SEQ ID NO. 2: human beta-casein f(169-173), identified in fraction #23 (VPYPQ; listed as Homo sapiens) | significantly inhibited |  | 3940±623 uM Trolox/g | 
SEQ ID NO. 8: human kappa-casein f(31-36), identified in fraction #23 (VPNSYP; listed as Homo sapiens) |  |  | 3462±560 uM Trolox/g | 
SEQ ID NO. 19: tyrosine-containing peptide of fraction #23, not matched to a human milk protein (YGYTGA; listed as Homo sapiens) | significantly inhibited | most radical scavenging properties | 8205±552 uM Trolox/g | 
SEQ ID NO. 9: human kappa-casein f(53-58), identified in fraction #23 (NPYVPR; listed as Homo sapiens) |  |  | 3380±592 uM Trolox/g | 

From patent US8518894B2, “Human milk peptides” (priority 2009, dated 2013)
